ChEMBL document CHEMBL1129344, “Chemical synthesis of benzamide adenine dinucleotide: inhibition of inosine monophosphate dehydrogenase (types I and II)” (J Med Chem, 1996)
One block for each molecule: values may come before it.

Columns and labels:
Homo sapiens [1] = species on record: Homo sapiens; experiment: Binding affinity towards less potent effect against alcohol dehydrogenase (ADH); format: functional
Homo sapiens [2] = species on record: Homo sapiens; experiment: Compound was evaluated for inhibitory concentration of inosine monophosphate dehydrogenase; format: functional, organism-based
Homo sapiens [3] = species on record: Homo sapiens; experiment: Compound was evaluated for inhibitory concentration potent against IMPDH type-I; format: functional, organism-based
Homo sapiens [4] = species on record: Homo sapiens; experiment: Compound was evaluated for inhibitory concentration potent against IMPDH type-II; format: functional, organism-based
Homo sapiens [5] = species on record: Homo sapiens; experiment: Compound was evaluated for binding affinity by enzymatically to inhibit IMPDH; format: functional
Homo sapiens [6] = species on record: Homo sapiens; experiment: Compound was evaluated for inhibition of inosine monophosphate dehydrogenase type-I; format: functional, organism-based
Homo sapiens [7] = species on record: Homo sapiens; experiment: Compound was evaluated for inhibition of inosine monophosphate dehydrogenase type-II; format: functional, organism-based

Ki (Homo sapiens [1]): 20 nM
IC50 (Homo sapiens [2]): 26000 nM
SMILES: NC(=O)c1cccc([C@@H]2O[C@H](CO)[C@@H](O)[C@H]2O)n1

IC50 (Homo sapiens [3]): 94 nM
IC50 (Homo sapiens [4]): 101 nM
SMILES: NC(=O)c1csc([C@@H]2O[C@H](CO)[C@@H](O)[C@H]2O)n1 [TIAZOFURIN]

IC50 (Homo sapiens [2]): 7000 nM
SMILES: NC(=O)c1cncc([C@@H]2O[C@H](CO)[C@@H](O)[C@H]2O)c1

Ki (Homo sapiens [5]): 118 nM
IC50 (Homo sapiens [6]): 780 nM
IC50 (Homo sapiens [7]): 880 nM
SMILES: NC(=O)c1cccc([C@@H]2O[C@H](CO)[C@@H](O)[C@H]2O)c1
